# Measurements published in ChEMBL document CHEMBL3621077, “Synthesis of hybrid anticancer agents based on kinase and histone deacetylase inhibitors” (Medchemcomm, 2014).
# Calls of active or inactive are those of the source. The calls are words filed in the database; no cut-off is given here.
# Key:
# [1] = target: Mast/stem cell growth factor receptor Kit (Homo sapiens) (UniProt P10721); test: Inhibition of c-kit (unknown origin) at 10 uM
# [2] = target: Vascular endothelial growth factor receptor 1 (Homo sapiens, UniProt P17948); test: Inhibition of VEGFR1 (unknown origin); settings: read-out: IC50
# [3] = target: Vascular endothelial growth factor receptor 2 (Homo sapiens, UniProt P35968); test: Inhibition of VEGFR2 (unknown origin); settings: read-out: IC50
# [4] = target: Platelet-derived growth factor receptor alpha (Homo sapiens, UniProt P16234); test: Inhibition of PDGFRa (unknown origin); settings: read-out: IC50
# Histone deacetylase = format: cell-based, Homo sapiens; settings: hela
# Histone deacetylase 2 = Histone deacetylase 2 (Homo sapiens, UniProt Q92769)
# Histone deacetylase 5 = Histone deacetylase 5 (Homo sapiens, UniProt Q9UQL6); test: Inhibition of HDAC5 (unknown origin); settings: read-out: IC50
# [5] = target: T1, Protein deacetylase HDAC6 (Homo sapiens, UniProt Q9UBN7); test: Inhibition of HDAC6 (unknown origin); settings: read-out: IC50
# T1 sequence (Q9UBN7 whole entry): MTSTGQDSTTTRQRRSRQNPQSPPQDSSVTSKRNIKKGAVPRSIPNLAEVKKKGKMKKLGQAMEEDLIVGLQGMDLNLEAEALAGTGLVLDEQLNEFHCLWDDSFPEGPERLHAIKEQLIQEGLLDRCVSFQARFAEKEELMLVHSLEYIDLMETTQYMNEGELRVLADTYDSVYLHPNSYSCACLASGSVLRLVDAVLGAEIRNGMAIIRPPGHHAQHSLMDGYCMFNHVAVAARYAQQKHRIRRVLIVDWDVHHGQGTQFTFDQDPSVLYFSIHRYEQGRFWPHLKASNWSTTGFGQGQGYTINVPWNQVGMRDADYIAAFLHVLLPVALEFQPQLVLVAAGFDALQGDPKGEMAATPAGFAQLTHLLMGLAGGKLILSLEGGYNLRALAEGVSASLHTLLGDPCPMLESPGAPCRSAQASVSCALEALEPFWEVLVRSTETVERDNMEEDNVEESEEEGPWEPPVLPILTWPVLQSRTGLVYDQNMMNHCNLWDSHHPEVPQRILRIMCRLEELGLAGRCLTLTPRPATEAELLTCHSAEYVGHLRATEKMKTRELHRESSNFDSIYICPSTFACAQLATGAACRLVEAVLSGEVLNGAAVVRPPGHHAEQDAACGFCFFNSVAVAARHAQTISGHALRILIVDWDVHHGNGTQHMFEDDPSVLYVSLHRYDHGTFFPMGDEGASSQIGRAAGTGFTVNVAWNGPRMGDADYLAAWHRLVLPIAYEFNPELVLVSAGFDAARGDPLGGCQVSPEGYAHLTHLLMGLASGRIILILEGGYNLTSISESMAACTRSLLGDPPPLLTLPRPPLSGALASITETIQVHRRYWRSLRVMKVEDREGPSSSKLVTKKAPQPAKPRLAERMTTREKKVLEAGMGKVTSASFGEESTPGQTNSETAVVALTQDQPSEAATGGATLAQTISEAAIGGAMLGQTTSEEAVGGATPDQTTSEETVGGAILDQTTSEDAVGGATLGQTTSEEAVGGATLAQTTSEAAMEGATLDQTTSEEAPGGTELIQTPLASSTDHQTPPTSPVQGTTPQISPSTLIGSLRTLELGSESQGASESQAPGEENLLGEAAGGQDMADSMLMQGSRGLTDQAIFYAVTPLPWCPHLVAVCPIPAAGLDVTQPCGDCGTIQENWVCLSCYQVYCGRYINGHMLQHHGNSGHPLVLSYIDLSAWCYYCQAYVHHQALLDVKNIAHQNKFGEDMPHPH
# Histone deacetylase 9 = Histone deacetylase 9 (Homo sapiens, UniProt Q9UKV0); test: Inhibition of HDAC9 (unknown origin)
# Xenopus laevis = organism: Xenopus laevis; test: Inhibition of angiogenesis in Xenopus laevis embryo heart assessed as decrease in Egfl7 mRNA level at 10 to 100 uM at stage 9 incubated for 72 hrs until stage 38 measured by WISH method; format: functional, organism-based
# MDA-MB-231 [6] = test: Cytotoxicity against human MDA-MB-231 cells assessed as reduction of cell viability at 200 uM after 72 hrs by MTT assay relative to control; format: functional
# MDA-MB-231 [7] = test: Cytotoxicity against human MDA-MB-231 cells assessed as reduction of cell viability after 72 hrs by MTT assay; format: functional, cell-based; settings: MDA-MB-231, 72 h
# CCRF-CEM = test: Cytotoxicity against human CCRF-CEM cells; format: functional
# HL-60(TB) = test: Cytotoxicity against human HL-60(TB) cells; format: functional
# K562 = test: Cytotoxicity against human K562 cells; format: functional
# MOLT-4 = test: Cytotoxicity against human MOLT4 cells; format: functional
# A549 = test: Cytotoxicity against human A549 cells; format: functional
# NCI-H322M = test: Cytotoxicity against human NCI-H322M cells; format: functional
# NCI-H522 = test: Cytotoxicity against human NCI-H522 cells; format: functional
# HCT-15 = test: Cytotoxicity against human HCT15 cells; format: functional
# KM12 = test: Cytotoxicity against human KM12 cells; format: functional
# SW-620 = test: Cytotoxicity against human SW620 cells; format: functional
# SNB-19 = test: Cytotoxicity against human SNB19 cells; format: functional
# SNB-75 = test: Cytotoxicity against human SNB75 cells; format: functional
# LOX IMVI = test: Cytotoxicity against human LOXIMVI cells; format: functional
# SK-MEL-28 = test: Cytotoxicity against human SK-MEL-28 cells; format: functional
# SK-OV-3 = test: Cytotoxicity against human SKOV3 cells; format: functional
# 786-0 = test: Cytotoxicity against human 786-0 cells; format: functional
# RXF 393 = test: Cytotoxicity against human RXF393 cells; format: functional
# SN12C = test: Cytotoxicity against human SN12C cells; format: functional
# TK-10 = test: Cytotoxicity against human TK10 cells; format: functional
# MDA-MB-231 [8] = test: Cytotoxicity against human MDA-MB-231 cells; format: functional
# [9] = Cytotoxicity against human Hs 578T cells; format: functional
# BT-549 = test: Cytotoxicity against human BT549 cells; format: functional
# T47D = test: Cytotoxicity against human T47D cells; format: functional
# Platelet-derived growth factor receptor alpha, sequence (P16234 whole entry): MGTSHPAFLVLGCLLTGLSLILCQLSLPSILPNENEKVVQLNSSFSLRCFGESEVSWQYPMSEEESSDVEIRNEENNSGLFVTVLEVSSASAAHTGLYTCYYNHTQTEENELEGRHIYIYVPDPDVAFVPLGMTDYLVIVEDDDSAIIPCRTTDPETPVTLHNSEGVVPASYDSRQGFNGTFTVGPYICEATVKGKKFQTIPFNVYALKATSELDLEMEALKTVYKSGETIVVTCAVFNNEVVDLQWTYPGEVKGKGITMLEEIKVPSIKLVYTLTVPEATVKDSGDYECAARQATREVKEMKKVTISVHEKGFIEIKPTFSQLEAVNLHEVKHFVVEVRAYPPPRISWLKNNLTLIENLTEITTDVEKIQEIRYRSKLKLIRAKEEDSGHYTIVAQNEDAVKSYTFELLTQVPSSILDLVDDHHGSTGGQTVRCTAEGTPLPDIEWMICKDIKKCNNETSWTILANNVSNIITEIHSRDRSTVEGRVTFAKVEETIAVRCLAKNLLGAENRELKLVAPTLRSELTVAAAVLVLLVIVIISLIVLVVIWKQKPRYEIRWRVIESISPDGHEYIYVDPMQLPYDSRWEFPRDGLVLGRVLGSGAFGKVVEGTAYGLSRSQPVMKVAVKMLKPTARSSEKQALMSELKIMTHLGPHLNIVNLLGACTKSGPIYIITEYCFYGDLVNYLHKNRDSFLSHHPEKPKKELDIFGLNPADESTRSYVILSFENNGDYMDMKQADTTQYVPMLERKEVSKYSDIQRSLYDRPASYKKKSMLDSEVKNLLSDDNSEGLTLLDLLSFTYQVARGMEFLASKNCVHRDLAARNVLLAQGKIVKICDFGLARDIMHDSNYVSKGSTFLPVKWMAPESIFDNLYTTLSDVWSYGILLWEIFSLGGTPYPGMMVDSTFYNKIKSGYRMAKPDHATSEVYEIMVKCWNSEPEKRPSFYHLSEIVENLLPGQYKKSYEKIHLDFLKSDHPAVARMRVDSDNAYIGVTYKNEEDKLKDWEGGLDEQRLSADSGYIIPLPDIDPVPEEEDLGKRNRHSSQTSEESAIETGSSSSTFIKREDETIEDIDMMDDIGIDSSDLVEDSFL
# Histone deacetylase 9, sequence (Q9UKV0 whole entry): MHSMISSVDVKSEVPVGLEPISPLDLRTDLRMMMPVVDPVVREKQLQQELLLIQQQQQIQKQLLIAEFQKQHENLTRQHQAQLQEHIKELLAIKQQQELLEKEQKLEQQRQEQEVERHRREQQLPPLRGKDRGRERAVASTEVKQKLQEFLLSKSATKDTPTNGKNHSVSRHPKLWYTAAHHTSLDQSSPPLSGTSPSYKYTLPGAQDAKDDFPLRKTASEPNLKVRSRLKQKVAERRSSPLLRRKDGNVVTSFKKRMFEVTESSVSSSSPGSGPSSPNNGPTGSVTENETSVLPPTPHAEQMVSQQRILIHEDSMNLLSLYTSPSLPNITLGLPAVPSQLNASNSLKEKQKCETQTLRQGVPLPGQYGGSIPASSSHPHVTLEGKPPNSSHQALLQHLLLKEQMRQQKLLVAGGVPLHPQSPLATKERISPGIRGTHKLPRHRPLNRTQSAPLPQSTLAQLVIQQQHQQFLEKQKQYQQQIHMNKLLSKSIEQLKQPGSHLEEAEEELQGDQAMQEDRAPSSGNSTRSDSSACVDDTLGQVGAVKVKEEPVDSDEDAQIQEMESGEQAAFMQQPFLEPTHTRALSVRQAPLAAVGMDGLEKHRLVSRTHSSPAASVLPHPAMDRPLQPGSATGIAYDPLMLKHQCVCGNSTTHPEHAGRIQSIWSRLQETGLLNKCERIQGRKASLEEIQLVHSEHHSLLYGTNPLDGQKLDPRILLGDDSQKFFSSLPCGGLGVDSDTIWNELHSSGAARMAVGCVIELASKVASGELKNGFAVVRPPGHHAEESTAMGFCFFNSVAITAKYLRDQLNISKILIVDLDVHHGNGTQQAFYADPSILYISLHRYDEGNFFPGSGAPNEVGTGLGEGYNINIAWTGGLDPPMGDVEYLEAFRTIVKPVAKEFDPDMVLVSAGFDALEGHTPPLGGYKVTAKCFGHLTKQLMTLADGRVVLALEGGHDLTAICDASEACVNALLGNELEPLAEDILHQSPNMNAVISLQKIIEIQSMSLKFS
# Mast/stem cell growth factor receptor Kit (Homo sapiens), sequence (P10721 whole entry): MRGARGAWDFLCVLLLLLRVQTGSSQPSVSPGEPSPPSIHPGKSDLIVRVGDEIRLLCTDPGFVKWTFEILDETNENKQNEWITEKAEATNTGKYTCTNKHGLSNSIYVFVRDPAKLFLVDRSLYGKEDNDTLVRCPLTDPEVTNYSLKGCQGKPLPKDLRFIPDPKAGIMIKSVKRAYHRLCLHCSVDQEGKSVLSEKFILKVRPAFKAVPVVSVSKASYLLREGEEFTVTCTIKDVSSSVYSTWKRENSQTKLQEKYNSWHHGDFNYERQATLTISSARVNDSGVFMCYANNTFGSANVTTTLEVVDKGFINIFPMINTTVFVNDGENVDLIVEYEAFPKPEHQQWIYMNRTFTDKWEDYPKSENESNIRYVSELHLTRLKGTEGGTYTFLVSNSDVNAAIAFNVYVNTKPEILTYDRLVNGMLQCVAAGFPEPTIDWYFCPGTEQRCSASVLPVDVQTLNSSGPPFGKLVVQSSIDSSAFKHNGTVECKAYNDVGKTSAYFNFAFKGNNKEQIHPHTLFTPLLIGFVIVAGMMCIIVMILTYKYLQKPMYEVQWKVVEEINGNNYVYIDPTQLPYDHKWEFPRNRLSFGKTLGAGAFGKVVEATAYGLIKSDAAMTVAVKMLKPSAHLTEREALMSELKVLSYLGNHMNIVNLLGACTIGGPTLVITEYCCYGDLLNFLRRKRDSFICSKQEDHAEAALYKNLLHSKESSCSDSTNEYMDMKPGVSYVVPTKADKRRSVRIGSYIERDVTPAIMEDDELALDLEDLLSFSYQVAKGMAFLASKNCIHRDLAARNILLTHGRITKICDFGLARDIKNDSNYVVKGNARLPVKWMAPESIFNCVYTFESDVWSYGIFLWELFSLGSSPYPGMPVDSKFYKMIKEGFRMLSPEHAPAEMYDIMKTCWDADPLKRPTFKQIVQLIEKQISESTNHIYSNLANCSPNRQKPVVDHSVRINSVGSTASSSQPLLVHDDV
# Vascular endothelial growth factor receptor 2, sequence (P35968 whole entry): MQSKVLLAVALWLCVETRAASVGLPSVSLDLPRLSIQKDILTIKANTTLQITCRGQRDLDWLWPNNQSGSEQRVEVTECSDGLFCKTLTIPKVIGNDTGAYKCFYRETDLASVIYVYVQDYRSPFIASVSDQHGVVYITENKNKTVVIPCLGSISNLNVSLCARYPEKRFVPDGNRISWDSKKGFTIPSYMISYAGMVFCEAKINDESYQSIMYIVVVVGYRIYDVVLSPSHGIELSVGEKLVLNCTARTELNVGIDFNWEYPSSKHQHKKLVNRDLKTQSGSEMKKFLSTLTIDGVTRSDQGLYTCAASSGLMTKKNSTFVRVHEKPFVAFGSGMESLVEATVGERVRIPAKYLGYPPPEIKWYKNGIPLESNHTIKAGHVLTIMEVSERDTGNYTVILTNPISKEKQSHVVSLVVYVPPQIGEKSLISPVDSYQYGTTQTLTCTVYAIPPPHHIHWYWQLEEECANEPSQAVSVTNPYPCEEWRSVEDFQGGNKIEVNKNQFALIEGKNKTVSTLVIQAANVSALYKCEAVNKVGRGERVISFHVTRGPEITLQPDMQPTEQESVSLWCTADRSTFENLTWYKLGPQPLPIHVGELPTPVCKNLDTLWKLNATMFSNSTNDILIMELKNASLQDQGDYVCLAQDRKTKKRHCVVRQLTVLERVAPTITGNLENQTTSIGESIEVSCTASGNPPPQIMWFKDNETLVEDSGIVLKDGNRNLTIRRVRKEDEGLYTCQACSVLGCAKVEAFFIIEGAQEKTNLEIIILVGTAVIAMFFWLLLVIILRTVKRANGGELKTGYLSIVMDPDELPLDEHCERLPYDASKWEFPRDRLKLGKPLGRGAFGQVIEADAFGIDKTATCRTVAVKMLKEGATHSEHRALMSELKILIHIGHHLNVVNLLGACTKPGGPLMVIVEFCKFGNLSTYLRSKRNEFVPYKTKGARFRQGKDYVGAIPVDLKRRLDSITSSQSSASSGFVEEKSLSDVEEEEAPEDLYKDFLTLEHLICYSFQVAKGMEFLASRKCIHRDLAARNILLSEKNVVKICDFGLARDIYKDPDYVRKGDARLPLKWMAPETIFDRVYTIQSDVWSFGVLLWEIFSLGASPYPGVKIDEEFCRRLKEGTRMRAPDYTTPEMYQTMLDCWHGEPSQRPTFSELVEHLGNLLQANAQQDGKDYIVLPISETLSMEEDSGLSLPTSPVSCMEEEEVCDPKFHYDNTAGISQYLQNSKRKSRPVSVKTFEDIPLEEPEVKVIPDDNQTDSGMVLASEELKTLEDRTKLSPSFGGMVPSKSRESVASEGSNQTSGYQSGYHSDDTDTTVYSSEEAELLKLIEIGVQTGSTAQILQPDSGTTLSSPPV
# Histone deacetylase 2, sequence (Q92769 whole entry): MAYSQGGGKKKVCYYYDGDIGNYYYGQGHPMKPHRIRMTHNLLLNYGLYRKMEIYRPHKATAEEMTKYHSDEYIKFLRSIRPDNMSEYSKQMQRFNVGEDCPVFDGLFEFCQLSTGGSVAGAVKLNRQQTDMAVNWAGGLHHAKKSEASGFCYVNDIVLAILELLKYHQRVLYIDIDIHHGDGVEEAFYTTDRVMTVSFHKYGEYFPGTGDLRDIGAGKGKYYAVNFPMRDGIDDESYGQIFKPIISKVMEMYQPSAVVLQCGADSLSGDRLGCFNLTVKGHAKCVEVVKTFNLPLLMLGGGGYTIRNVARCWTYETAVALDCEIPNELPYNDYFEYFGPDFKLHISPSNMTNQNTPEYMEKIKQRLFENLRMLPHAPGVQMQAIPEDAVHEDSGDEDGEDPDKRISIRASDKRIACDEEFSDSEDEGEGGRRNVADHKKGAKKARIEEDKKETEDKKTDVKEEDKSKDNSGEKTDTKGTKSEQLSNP
smiles,measurement,setting,value
O=C(CCCCCCC(=O)Nc1ccc2c(c1)/C(=C/c1ccc[nH]1)C(=O)N2)NO,inhibition,[1],inactive
same,IC50,[2],365 nM
same,IC50,[3],237 nM
same,IC50,[4],1190 nM
same,IC50,Histone deacetylase,117 nM
same,IC50,Histone deacetylase 2,1.11 nM
same,IC50,Histone deacetylase 5,850 nM
same,IC50,[5],0.323 nM
same,IC50,Histone deacetylase 9,Not Active
same,inhibition,Xenopus laevis,Active
same,Activity,MDA-MB-231 [6],30%
same,IC50,MDA-MB-231 [7],29000 nM
same,GI50,CCRF-CEM,102 nM
same,GI50,HL-60(TB),477 nM
same,GI50,K562,251 nM
same,GI50,MOLT-4,302 nM
same,GI50,A549,2900 nM
same,GI50,NCI-H322M,1020 nM
same,GI50,NCI-H522,87 nM
same,GI50,HCT-15,4590 nM
same,GI50,KM12,960 nM
same,GI50,SW-620,275 nM
same,GI50,SNB-19,644 nM
same,GI50,SNB-75,194 nM
same,GI50,LOX IMVI,565 nM
same,GI50,SK-MEL-28,406 nM
same,GI50,SK-OV-3,363 nM
same,GI50,786-0,2400 nM
same,GI50,RXF 393,518 nM
same,GI50,SN12C,2190 nM
same,GI50,TK-10,795 nM
same,GI50,MDA-MB-231 [8],1000 nM
same,GI50,[9],1020 nM
same,GI50,BT-549,1940 nM
same,GI50,T47D,45 nM
